# Reference: patent publication US9783859B2, “Method of screening and quantifying various enzymatic activities using artificial genetic circuits” (KOREA RESEARCH INSTITUTE OF BIOSCIENCE AND BIOTECHNOLOGY, priority 2009, dated 2017)
# Assays:
# [1] = tested on: artificial genetic circuit pGESS-EGFP (I) (dmpR); test: signals of artificial genetic circuit for various phenols, FACS fluorescence; assay type: cell-based, E. coli DH5α; conditions: 100 uM of each phenol derivative, 30° C. 18 hours
# Text: Whether the artificial genetic circuit senses the following phenol derivatives and the sensitivities of the genetic circuit to the phenol derivatives were examined: o-nitrophenol, m-nitrophenol, p-nitrophenol, o-chlorophenol, m-chlorophenol, p-chlorophenol, salicylic acid, 2-aminophenol, 2-methoxyphenol, o-cresol, m-cresol, p-cresol, catechol, resorcinol, 2-fluorophenol, 2-iodophenol, 2,4-dimethylphenol, 2,5-dimethylphenol, 3,4-dimethylphenol, 2,3-dimethylphenol, 3,5-dimethylphenol, 2,4-dichlorophenol, 2,5-dichlorophenol, 2,3-dichlorophenol, 2,6-dichlorophenol, 3,4-dichlorophenol, 3,5-dichlorophenol, 2,4-dinitrophenol, 3-methylcatechol, 2-ethylphenol, 3-ethylphenol, and benzene. Specifically, a single colony of E. coli DH5α containing pGESS-EGFP (I) was inoculated into LB liquid medium containing 50 μg/ml of ampicillin and was cultured overnight at 37° C. The culture was inoculated into LB medium containing 50 μg/ml of ampicillin to a concentration of 1% (v/v) and was cultured at 37° C. for about 8 hours until the OD600 of the cells reached 3. Then, 100 uM of each of the phenol derivatives was added to the culture which was then cultured with shaking at 30° C. for 18 hours. 100 μl of each culture was extracted, and the distribution of fluorescence in individual cells was examined by FACS. Each of the samples was tested three times, and the measurements were averaged.
# [2] = tested on: artificial genetic circuit pGESS-Cm (II); test: response of chloramphenicol resistance reporter circuit to phenol derivatives, OD600; assay type: cell-based, E. coli EPI300; conditions: 100 μM of each phenol derivative, 30 μg/ml chloramphenicol, 37° C. 8 hours
# Procedure: In the case of the artificial genetic circuit comprising chloramphenicol resistance gene as the reporter, whether the genetic circuit responds to the substrates was examined. […] The culture was inoculated into 50 μg/ml ampicillin-containing LB liquid medium to a concentration of 1% (v/v), and then 30 μg/ml of chloramphenicol and 100 μM of each of the phenol derivatives were added thereto and the cells were cultured with shaking at 37° C. for 8 hours. Then, the OD600 of the cells was measured, thereby examining whether the genetic circuit responded to the phenol derivatives. As a control group, cells containing 100 μM of phenol without containing chloramphenicol were used.
# [3] = tested on: artificial genetic circuit pGESS-EGFP (I) (dmpR); assay type: cell-based, E. coli DH5α; conditions: 0.1-1000 μM tested, overnight at 30° C., LB medium
# Procedure: The signals of the artificial genetic circuit for phenolic compounds were quantitatively analyzed. Specifically, a single colony of E. coli DH5α containing pGESS-EGFP (I) was inoculated into LB liquid medium containing 50 μg/ml of ampicillin and was cultured with shaking overnight at 37° C. The culture was inoculated into LB medium containing 50 μg/ml of ampicillin to a concentration of 1% (v/v), and 0.1-1000 μM of each of phenol, o-chlorophenol, m-chlorophenol, o-nitrophenol, catechol and resorcinol was added thereto and cultured with shaking overnight at 30° C. The cells were lysed, and the supernatant was analyzed by a fluorescence spectrometer (Varian, Australia), thereby measuring the fluorescence of GFP at 510 nm.
SMILES,"response of the artificial genetic circuit (fluorescence, FACS) [1]","response of the artificial genetic circuit (chloramphenicol resistance, OD600) [2]",concentration from which fluorescence started to be sensed [3]
"Oc1cccc(Cl)c1Cl [2,3-dichlorophenol]",weakly responded,–,–
"Cc1cccc(O)c1C [2,3-dimethylphenol]",weakly responded,strongly responded,–
"Oc1cc(Cl)ccc1Cl [2,5-dichlorophenol]",weakly responded,–,–
"Cc1ccc(C)c(O)c1 [2,5-dimethylphenol]",weakly responded,–,–
Nc1ccccc1O [2-aminophenol],strongly responded,–,–
CCc1ccccc1O [2-ethylphenol],strongly responded,strongly responded,–
Oc1ccccc1F [2-fluorophenol],strongly responded,strongly responded,–
Oc1ccccc1I [2-iodophenol],strongly responded,strongly responded,–
COc1ccccc1O [2-methoxyphenol],strongly responded,strongly responded,–
Oc1ccccc1O [catechol],strongly responded,strongly responded,10 µM
Oc1cccc(Cl)c1 [m-chlorophenol],weakly responded,strongly responded,1 µM
Cc1cccc(O)c1 [m-cresol],strongly responded,strongly responded,–
O=[N+]([O-])c1cccc(O)c1 [m-nitrophenol],weakly responded,strongly responded,–
Oc1ccccc1Cl [o-chlorophenol],strongly responded,strongly responded,≤ 0.1 µM
Cc1ccccc1O [o-cresol],strongly responded,strongly responded,–
O=[N+]([O-])c1ccccc1O [o-nitrophenol],strongly responded,strongly responded,10 µM
Oc1ccc(Cl)cc1 [p-chlorophenol],weakly responded,weakly responded to or did not respond,–
Cc1ccc(O)cc1 [p-cresol],weakly responded,weakly responded to or did not respond,–
O=[N+]([O-])c1ccc(O)cc1 [p-nitrophenol],did not respond,weakly responded to or did not respond,–
Oc1cccc(O)c1 [resorcinol],–,–,100 µM
